{"source": "patent US8916686B2", "about": "“TDF-related compounds and analogs thereof” (Thrasos Innovation, Inc., priority 2004, dated 2014)", "type_in_all_cases": "in vivo", "key": {"[1]": {"system": "rat after ligation of the coronary artery", "assay": "LAD occlusion model of myocardial injury (ischemia/reperfusion)", "protocol": "The efficacy of compound SEQ ID #45 in ameliorating the effects of myocardial ischemia was investigated in the rat after ligation of the coronary artery. […] unmanipulated rats, sorted into two large groups by initial body weight (>300 g pre-surgery) were evaluated. Fourteen rats underwent surgery on week, 12 rats underwent surgery on week 2 and rats were sorted into 3 treatment groups: Group 1, PBS; Group 2, positive control TDF-1; Group 3, test article SEQ ID #45 (see Table X).\nThree days prior to surgery, a serum sample was collected from the tail vein of each rat (pre-bleed). On the day of surgery, each rat was administered compound intravenously 2 hr prior to surgery. Surgery was performed sequentially after intubation and ventilation with 0.5% isofluorane anesthetic. Lead II ECG was monitored throughout the surgery. A thoracotomy was performed and the main left coronary artery was occluded for 20 min using a snare technique (FIG. 16). Successful occlusion of the artery was confirmed by ST elevation in lead II ECG within the first 5 minutes of ligation, and by frequent ventricular arrhythmia after 10 minutes of ligation. The snare was released to restore blood flow. The original suture loop was left in place for subsequent re-occlusion on Day 7. After initiation of reperfusion, the chest cavity was closed with 2 layers of suture. Rats were weaned from the ventilator and observed until fully conscious and mobile. Antibiotic (QD) and analgesic (Q8D) were provided. Additional serum samples were collected 6, 24, 72 and 120 hours post occlusion. Additional compound, positive control or vehicle treatments were delivered by intravenous injection in the tail vein at 24, 72 and 120 hours post occlusion.\nOn Day 7, each rat was anesthetized (ketamine:xyline), the chest cavity re-opened and a terminal blood sample (1 ml) was withdrawn from the abdominal vein. Gross pathology (i.e. inflammation) was noted and graded on a 4 point inflammation scale: 0=no inflammation, 1=slight, 2=moderate, 3=severe and 4=complete pericarditis. The left coronary artery was then re-occluded using the existing stitch and a concentrated solution of Evans Blue dye in saline (20 mg/ml; 0.5 ml/rat) was injected into the heart apex to stain the non-ischemic cardiac tissue blue. The heart was then arrested by injection of a saturated solution of potassium chloride into the right ventricle. The heart was then excised, wrapped in cellophane and stored at −20° C. for 1.5 hour. The cold heart was cut into 10 cross-sectional slices (2 mm/slice) and each section was numbered and incubated separately in triphenyltetrazolium chloride (1% TTC in PBS) for 10 minutes at 37° C. prior to fixing in 4% formaldehyde. Subsequently, each slice was photographed. For each slice, the “area at risk (AR)” and the “area occupied by necrosis (AN)” were measured by morphometry. The ratio of AN to AR is a measure of the degree of damage resulting from the occlusion (FIG. 17A-FIG. 17B)."}, "[2]": {"system": "renal toxic effects of cisplatin in the rat", "assay": "Cisplatin renal toxicity in male Sprague-Dawley rat", "protocol": "Compound (SEQ ID #45) was tested in male Sprague-Dawley rats (250 gm to 300 gm) to establish the dose range and the extent to which the compound is able to prophylactically and therapeutically ameliorate the renal toxic effects of cisplatin. The cisplatin dosing level was the chemotherapeutic level used in humans, 40 ug/kg bw. The end points were the level of creatinine in serum and kidney histology. The positive control used was 250 ug/kg bw of the mature form of recombinant human BMP-7 (rhmBMP-7).\nA stock solution (70 mg/ml) of the test article (SEQ ID #45) was made by dissolving it in 20 mM Acetate (ph 4.2). The stock solution was further diluted into phosphate buffered saline (PBS, pH 7.2) plus 5% Mannitol to compound concentrations of 14 mg/ml (28 mg/kg dose), 1.4 mg/ml (2.8 mg/kg dose) and 0.14 mg/ml (0.28 mg/kg dose).\nCisplatin was administered via i.p. injection (40 ug/kg bw) at time zero. Administration of therapeutic dosing of the compound, the rhmBMP-7 positive control and vehicle negative control were by slow bolus i.v. injection through the tail vein at five time points: 2 hours before the administration of cisplatin, then at 24 hours, 48 hours, 72 hours and 96 hours post cisplatin administration. Blood samples were collected through the tail vein at time points of 0, 24, 48, 72 and 96 hours. At seven day sample was collected by exsanguination at sacrifice. Serum was prepared from the blood samples and analyzed for creatinine concentration. The serum concentration of creatinine, a byproduct of muscle activity that is released into the blood stream and cleared through the kidneys, is a marker of kidney function that tends to rise when kidney function becomes severely compromised (FIG. 18).\nUpon sacrifice at seven days, the kidneys were harvested, fixed in formalin and imbedded in paraffin. They were then sagitally sectioned and stained in H&E stain. Kidney sections were also stained with anti-bodies against proliferating cell nuclear antigen (PCNA) (to identify sites of cell regeneration), macrophages, ICAM-1, and smooth muscle. Also collected at sacrifice were tissues at and around the injection site (FIG. 19A-FIG. 19B)."}, "[3]": {"system": "CD1 mouse model of streptozotocin (STZ)-induced diabetic nephropathy", "assay": "Streptozotocin (STZ)-induced diabetic nephropathy", "details": "ip 5 mg/kg/24 hr; after one month treatment", "protocol": "Reversal of interstitial fibrosis by Thrasos compound SEQ ID NO 45 in a CD1 mouse model of streptozotocin (STZ)-induced diabetic nephropathy. FIG. 7A. schematic of the experimental protocol, FIG. 7B: Kidney section of vehicle-treated animal, FIG. 7C: Kidney section of animal received ip administration of Thrasos compound (5 mg/kg/24 hr). Sac: After one month treatment."}}}
{"sequence": "CYFDDSSNVLCKKYRS [SEQ ID NO 45]", "values": [{"measurement": "degree of cardiac inflammation", "setting": "[1]; LAD occlusion model", "value": "reduces the degree of cardiac inflammation"}, {"measurement": "necrotic area to area at risk ratio (IA/AR)", "setting": "[1]; LAD occlusion model", "value": "reduces the necrotic area to area at risk ratio (IA/AR)"}, {"measurement": "reduction in inflammation score as compared to PBS-treated animals", "setting": "[1]; day 7, 10 mg/kg i.v., 4 point inflammation scale", "value": 78, "unit": "%"}, {"measurement": "reduction in AN/AR ratio as compared to PBS-treated animals", "setting": "[1]; day 7, compound 10 mg/kg i.v., rhmBMP-7 160 μg/kg i.v.", "value": 84, "unit": "%"}, {"measurement": "inflammation and cytotoxic effects toward cardiomyocytes following myocardial infarction", "setting": "[1]; myocardial ischemia and reperfusion injury", "value": "ameliorate inflammation and cytotoxic effects toward cardiomyocytes"}, {"measurement": "cisplatin-induced inflammation of the kidney cortex", "setting": "[2]; 2.8 mg/kg bw", "value": "significantly reduced"}, {"measurement": "ICAM-1 release", "setting": "[2]; 2.8 mg/kg bw, kidney sections", "value": "reduced"}, {"measurement": "degree of cellular regeneration (PCNA)", "setting": "[2]; 2.8 mg/kg bw, kidney sections", "value": "increased"}, {"measurement": "macrophage infiltration", "setting": "[2]; 2.8 mg/kg bw, kidney sections", "value": "reduced"}, {"measurement": "smooth muscle loss", "setting": "[2]; 2.8 mg/kg bw, kidney sections", "value": "reduced"}, {"measurement": "cisplatin-induced level of creatinine in serum", "setting": "[2]; 0.28, 2.8 and 28 mg/kg bw i.v.", "value": "reduces the cisplatin-induced level of creatinine in serum"}, {"measurement": "reduction of serum creatinine rise following cisplatin, versus positive control", "setting": "[2]; highest dose (28 mg/kg), positive control rhmBMP-7", "value": "more efficacious than the positive control"}, {"measurement": "nephrotoxic effects of cisplatin exposure", "setting": "[2]; rat, in vivo", "value": "can reduce or ameliorate the nephrotoxic effects of cisplatin exposure"}, {"measurement": "renal interstitial fibrosis", "setting": "[3]", "value": "effectively reversed renal interstitial fibrosis"}]}
